We go through 12 compounds from patent US5753661A, “Fused benzo compounds containing a nitrogen heterocycle for the treatment of central nervous system disorders” (priority 1992, dated 1998).

Assay [1] relates to 5-HT1A. Conditions: cited from earlier work.
For assay [2], the target named is T1, 5-HT1A receptor (Rattus norvegicus, UniProt P19327).
T1 sequence (P19327 1-422): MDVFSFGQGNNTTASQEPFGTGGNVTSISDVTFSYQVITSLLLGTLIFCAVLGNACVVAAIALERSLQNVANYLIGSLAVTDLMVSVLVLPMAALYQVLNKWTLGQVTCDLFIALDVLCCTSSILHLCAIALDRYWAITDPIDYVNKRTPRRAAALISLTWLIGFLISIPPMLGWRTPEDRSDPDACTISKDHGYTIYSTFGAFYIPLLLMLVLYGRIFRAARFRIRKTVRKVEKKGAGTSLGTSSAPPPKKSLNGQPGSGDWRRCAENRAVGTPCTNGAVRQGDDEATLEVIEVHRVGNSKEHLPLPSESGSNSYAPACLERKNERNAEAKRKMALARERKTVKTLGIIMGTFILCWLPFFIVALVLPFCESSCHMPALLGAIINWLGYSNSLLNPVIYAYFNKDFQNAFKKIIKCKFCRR
The assay can be described thus: Inhibition of 5-MeO-DMT-induced 5-HT syndrome in rats. The assay is classed as in vivo, rat (male Wistar). Also noted: Male Wistar rats (Mol:Wist) weighing 170-240 g are used; from tissue; host or cells: living male Wistar rat (Mol:Wist) (in vivo, endogenous receptor). The conditions noted are these: sc, 5-MeO-DMT 5 mg/kg s.c., inhibition of piano playing. The text has this: Inhibition of 5-MeO-DMT-Induced 5-HT Syndrome in Rats
The so-called 5-HT syndrome is a characteristic pattern of behaviours which are induced by 5-HT agonists with effects on 5-HT, possibly 5-HT1A receptors (Smith, L. M. and Peroutka, S. J., Pharmacol. Biochem. & Behaviour, 1986, 24, 1513; Tricklebank, M. et al, Eur. J. Pharmacol. 1985, 117, 15). This test is a test for determining the antagonist effects of a test compound on 5-HT1A receptors in vivo by measuring the ability to inhibit 5-MeO-DMT induced 5-HT syndrome.
Male Wistar rats (Mol:Wist) weighing 170-240 g are used. Test substance is injected s.c. before 5-MeO-DMT 5 mg/kg, s.c. Four rats are used for each dose. A control group pretreated with saline is included each test day. 10, 15 and 20 min later the rats are observed for presence of serotonin (5-HT) syndrome. The following symptoms are recorded: 1) forepaw treading ("piano playing"), 2) head weaving and 3) hindleg abduction. Furthermore, flat motility is scored. Each part of the syndrome is scored as follows: marked effect (score 2), weak syndrome (score 1) and no effect (score 0). The scores of the three observation periods are added. Thus the maximum obtainable score for four rats is 24. The effect of the test substance is expressed as percent inhibition relative to the control group.
The percent inhibition of the piano playing syndrome is used as the response and ED50 value are calculated by log-probit analysis.

Assay [3] deals with T1, 5-HT1A receptor. The assay can be described thus: Inhibition of 3H-8-OH-DPAT binding to serotonin 5-HT1A receptors in rat brain in vitro. The conditions noted are these: 3H-8-OH-DPAT 1 nM; membranes from rat brain minus cerebellum; read-out: IC50, 3H 8-OH-DPAT binding. Also on record: 5-HT1A receptors in membranes from rat brain minus cerebellum; from tissue; host or cells: rat brain minus cerebellum, membranes. The method, then:
Inhibition of ^3 H-8-OH-DPAT Binding to Serotonin 5-HT1A Receptors in Rat Brain in vitro.
By this method the inhibition by drugs of the binding of the 5-HT1A agonist 3H-8-OH-DPAT (1 nM) to 5-HT1A receptors in membranes from rat brain minus cerebellum is determined in vitro . Accordingly, this is a test for affinity for the 5-HT1A receptor. The assay was performed as described by Hyttel et al., Drug Dev. Res. 1988, 15, 389-404.

Assay [4] concerns the target T1, 5-HT1A receptor. The assay can be described thus: Antagonism of the discriminative stimulus properties induced by 8-OH-DPAT in rats (8-OH-DPAT cue). Also noted: from tissue; host or cells: living male Wistar rat (in vivo, endogenous receptor). The conditions noted are these: sc, before 8-OH-DPAT 0.4 mg/kg i.p. The assay is classed as in vivo, rat (male Wistar). On the procedure: Antagonism of the Discriminative Stimulus Properties Induced by 8-OH-DPAT in Rats.
This test is used to determine the 5-HT1A receptor antagonistic effect of a test compound in vivo. A related method is described by Tricklebank, M. D., et al, Eur. J. Pharmacol, 1987, 133, 47-56; Amt, J. Pharmacology & Toxicology, 1989, 64, 165.
Male Wistar rats are trained to discriminate between 8-OH-DPAT (0.4 mg/kg, i.p., 15 min pretreatment) and physiological saline in operant chambers equipped with two response levers. Between the levers a dipper is placed, where water rewards (0.1 ml) are presented. The rats are water deprived for at least 24 h and work in a fixed ratio (FR) schedule (final FR=32).
Following 8-OH-DPAT administration, responding is reinforced only on a designated (drug) lever, whereas responding on the opposite lever has no consequences. Following saline administration, responding is reinforced on the lever opposite to the drug lever. Drug and saline trials alternate randomly between days. The level of discrimination accuracy is expressed as the per cent drug responses and is calculated as the number of correct responses ×100 divided by the sum of the correct and incorrect responses before the first reward. The time to the first reward is also recorded as a measure of reaction time. When stable accuracy (mean correct responding=90%; individual rats at least 75% correct responding) is obtained test sessions are included between training days. Test compound is injected s.c. or p.o. at appropriate time before 8-OH-DPAT and the test begins 15 min after 8-OH-DPAT injection. The test trial is terminated when a total of 32 responses are made on either lever or when 20 min have elapsed. No reward is given and the rats have free access to water for 20-30 min after the test. The effects are expressed as per cent inhibition of drug responding. Only results from rats making at least 10 responses on one lever are included in data analysis. Furthermore, only test sessions in which at least half of the rats respond are included.
The per cent inhibition of drug response obtained for each dose of test compound is used to calculate ED50 values by log-probit analysis.

Assay [5] has as its target T1, 5-HT1A receptor. The experiment in a line: Generalization to the discriminative stimulus properties induced by 8-OH-DPAT in rats (8-OH-DPAT cue, agonism). Conditions: for ED50: rat, sc, usually 30 or 45 min before test; for agonist activity/efficacy in words, 8-OH-DPAT cue: 8-OH-DPAT cue model, s.c. Also noted: from tissue; host or cells: living male Wistar rat (in vivo, endogenous receptor). Format: in vivo, rat (male Wistar). The text has this:
Generalization to the Discriminative Stimulus Properties Induced by 8-OH-DPAT in Rats
This test is used to determine the 5-HT1A receptor agonistic effect of a test compound in vivo. A related method is described by Tricklebank, M. D., supra; Amt, J. Pharmacology & Toxicology, 1989, 64, 165.
The per cent drug responce obtained for each dose of test compound is used to calculate ED50 values by log-probit analysis.

For the compound `O=C1CC2(CCCC2)CC(=O)N1CCCCN1CCN(c2ncccn2)CC1` [Buspirone, 8-[4-[4-(2-pyrimidyl)-1-piperazinyl]butyl]-8-azaspiro[4,5]decane-7,9-dione], in assay [1], the “5-HT1A agonist activity, in words” value is reported as 5-HT1A partial agonists.

For `O=S(=O)(CCCN1CCN(c2cccc3c2OCCO3)CC1)C1CCCCC1` [Compound 1a, 1-(1,4-Benzodioxan-5-yl)-4-(3-cyclohexylsulfonyl-1-propyl)piperazine], the figures for the ED50 in assay [2], in assay [4] and in assay [5] were 2.3 µmol/kg, > 0.62 µmol/kg and 0.034 µmol/kg, respectively. In addition, the IC50 – broadly, the concentration that gives 50% inhibition – in assay [3] is 0.0026 µM.

For the compound `CC(C)S(=O)(=O)CCCN1CCN(c2cccc3c2OCCO3)CC1` [Compound 1e, 1-(1,4-Benzodioxan-5-yl)-4-(3-isopropylsulfonyl-1-propyl)piperazine], the ED50 (usually the dose that gives a 50% effect, or the effect in half of the subjects) in assay [2] was 5.1 µmol/kg; in assay [4], > 10 µmol/kg. Also, the IC50 in assay [3] was 0.023 µM. For the same compound, the “agonist activity/efficacy in words, 8-OH-DPAT cue” value (shortened to “agonist activity/efficacy in words”) in assay [5] was “partial agonist”. In addition, in assay [5] (at 0.04-10 μmol/kg, s.c. (note a)), the “response, 8-OH-DPAT cue agonism” value is 30-75%.

On to `O=C1N(CCCN2CCN(c3cccc4c3OCCO4)CC2)CCN1c1ccccc1` [Compound 2a, 1-[3-[4-(1,4-Benzodioxan-5-yl)-1-piperazinyl]-1-propyl]-3-phenyl-2-imidazolidinone], for which the ED50 is 6.6 µmol/kg in assay [2], > 11 µmol/kg in assay [4] and 3.1 µmol/kg in assay [5]. In addition, the IC50 in assay [3] was determined as 0.016 µM.

With `O=C1N(CCN2CCN(c3cccc4c3OCCO4)CC2)CCN1C1CCCC1` [Compound 2b, 1-[2-[4-(1,4-Benzodioxan-5-yl)-1-piperazinyl]ethyl]-3-cyclopentyl-2-imidazolidinone], the ED50 was 8.9 µmol/kg in assay [2], 2.7 µmol/kg in assay [4] and > 11 µmol/kg in assay [5]. The IC50 in assay [3] amounted to 0.018 µM.

`O=C1N(CCN2CCN(c3cccc4c3OCCO4)CC2)CCN1c1ccccc1` [Compound 2c, 1-[2-[4-(1,4-Benzodioxan-5-yl)-1-piperazinyl]ethyl]-3-phenyl-2-imidazolidinone]: the median effective dose (ED50) in assay [2] is 15 µmol/kg; in assay [4], > 2.6 µmol/kg; in assay [5], 0.76 µmol/kg. Besides, in assay [3], the IC50 stood at 0.013 µM.

With `O=C1N(CCN2CCN(c3cccc4c3OCCO4)CC2)CCN1C1CCCCC1` [Compound 2d, 1-[2-[4-(1,4-Benzodioxan-5-yl)-1-piperazinyl]ethyl]-3-cyclohexyl-2-imidazolidinone], the ED50 in assay [2] was 10 µmol/kg; in assay [4], 6.3 µmol/kg. The “agonist activity/efficacy in words” value in assay [5] is “partial agonist”. Moreover, the “response, 8-OH-DPAT cue agonism” value in assay [5] (at 0.08-19 μmol/kg, s.c. (note b)) is reported as 30-50%.

For `O=C1N(CCCCN2CCN(c3cccc4c3OCCO4)CC2)CCN1C1CCCCC1` [Compound 2e, 1-[4-[4-(1,4-Benzodioxan-5-yl)-1-piperazinyl]-1-butyl]-3-cyclohexyl-2-imidazolidione], the ED50 in assay [2] was 4.7 µmol/kg; in assay [4], 6.1 µmol/kg. Moreover, the IC50 in assay [3] came out at 0.00045 µM. In assay [5], the “agonist activity/efficacy in words” value is reported as “partial agonist”. Besides, the “response, 8-OH-DPAT cue agonism” value in assay [5] (at 0.6-2.4 μmol/kg, s.c. (note c)) was 20-60%.

For `O=C1N(CCCN2CCN(c3cccc4c3OCC4)CC2)CCN1c1ccccc1` [Compound 2g, 1-[3-[4-(2,3-Dihydrobenzofuran-7-yl)-1-piperazinyl]-1-propyl]-3-phenyl-2-imidazolidinone], the values for the ED50 in assay [2], in assay [4] and in assay [5] were 10 µmol/kg, > 11 µmol/kg and 1.6 µmol/kg, respectively. Besides, in assay [3], the IC50 came to 0.037 µM.

In the case of `CC(C)N1CCN(CCN2CCN(c3cccc4c3OCCO4)CC2)C1=O` [Compound 2o, 1-[2-[4-(1,4-Benzodioxan-5-yl)-1-piperazinyl]ethyl]-3-isopropyl-2-imidazolidinone], the ED50 in assay [2] turned out to be 9 µmol/kg; in assay [4], 23 µmol/kg; in assay [5] it was 27 µmol/kg. In assay [3], the IC50 came out at 0.051 µM.

As for `O=C1N(CCN2CCN(c3cccc4[nH]ccc34)CC2)CCN1C1CCCC1` [Compound 2y, 1-Cyclopentyl-3-[2-[4-(4-indolyl)-1-piperazinyl]ethyl]-2-imidazolidinone], the ED50 in assay [2] is 2.7 µmol/kg; in assay [4], 1.9 µmol/kg. In assay [3], the IC50 is 0.028 µM.

`O=C(NCCN1CCN(c2cccc3c2OCC(CO)O3)CC1)c1ccc(F)cc1` (centres unmarked) [Flesinoxane, 4-fluoro-N-[2-(4-(2-hydroxymethyl-1,4-benzodioxan-5-yl)piperazine-1-yl)ethyl]benzamide, reference compound]: in assay [1] (Schipper et al, Human Psychopharm., 1991), the “antidepressant and anxiolytic effects, in words” value was “antidepressant and anxiolytic effects”. The “5-HT1A agonist activity, in words” value in assay [1] was “high efficacy 5-HT1A agonist”. The ED50 in assay [2] is > 44 µmol/kg; in assay [5] it was 0.38 µmol/kg. In addition, the IC50 in assay [3] came out at 0.004 µM.
